Results taken from patent US20250144131A1, “POLYSACCHARIDE COMPOUND WITH A DEFINED MOLECULAR STRUCTURE FOR THE TREATMENT OF PULMONARY FIBROSIS” (SHENZHEN YANDAI INVESTMENT CO., LTD, priority 2023, published 2025).
Marks after values point to notes of the source that are not given here.

How the values were obtained:
[1] = Hematological and liver/kidney function tests (WBC, RBC, ALT, AST, BUN, CRE) in LLC-bearing mice
Protocol: (§1) LLC cells in logarithmic growth phase at 1×10^7/mL were inoculated at 0.2 mL into the right axilla of 10 purchased normal male C57 mice. Tumor growth was monitored, and tumor-bearing mice were prepared. Once the tumor volume in tumor-bearing mice exceeded 200 mm^3, the tumor tissue was aseptically harvested to prepare a tissue cell suspension. This was mixed at a 1:1 (V:V) ratio with culture medium to create a tumor tissue homogenate. This homogenate was injected into the right axilla of 60 male C57 mice at 0.2 mL per mouse. When the tumor volume in these tumor-bearing mice exceeded 100 mm^3, mice with well-grown tumors without ulceration were selected and randomized into groups based on tumor volume as follows: model control group, cisplatin group (4 mg/kg), Kanglaite soft capsule group (1,404 mg/kg), cisplatin+Kanglaite soft capsule group (4+1,404 mg/kg), cisplatin+GLP-4 low-dose group (4+130 mg/kg), and cisplatin+GLP-4 high-dose group (4+1,170 mg/kg), with 8 mice per group. Additionally, 8 mice were selected as a normal control group. The cisplatin group received intraperitoneal injections of cisplatin, and the other groups were administered their respective drug solutions by gavage (20 mL/kg) or intraperitoneal injection (10 mL/kg), once daily for 27 consecutive days. After the last dose, blood was collected from the orbital plexus to test blood WBC, RBC, liver and kidney function indicators (ALT, AST, BUN, CRE), and CD3^+, CD4^+, and CD8^+ levels. Bone marrow smears were examined, and spleens, thymuses, and tumors were weighed. Histopathological examinations were conducted on the tumor, spleen, stomach, and kidneys.
Hematological tests: Blood samples for routine blood tests (WBC and RBC) and liver and kidney function tests (BUN and CRE) were collected from the orbital plexus after the last dose.

[2] = Mortality and body weight of LLC-bearing mice
Protocol: as §1
Evaluation of quality of life and survival time in animals: Throughout the experimental process, detailed records were kept for each group of animals regarding weight, mortality, mental state, fur color, smoothness of fur, and fecal form, including incidences of diarrhea (if any).

[3] = tested on: H22 hepatoma solid tumors; assay: Antitumor effect in H22-bearing mice (tumor volume, relative tumor growth inhibition rate, tumor index, tumor growth inhibition rate); type: in vivo, C57 mice
Protocol: (§2) Longest and shortest diameters of tumors were measured every three days to calculate tumor volume, and mouse weights were recorded every three days. At the end of the experiment, tumors, spleens, and thymuses were harvested and weighed to calculate tumor, spleen, and thymus indices. […] Where TRTV is the relative tumor volume in the experimental group, and CRTV is the relative tumor volume in the model control group. Relative tumor volume (RTV)=Vt/V0, where Vt is the tumor volume on day t of dosing, and V0 is the tumor volume at the time of grouping. Evaluation criteria: […] Where T represents the average tumor weight in the treatment group, and C represents the average tumor weight in the model control group. Evaluation criteria: […]

[4] = tested on: LLC tumors; assay: Antitumor effect in LLC-bearing mice (tumor volume, relative tumor volume, T/C, tumor coefficient, tumor growth inhibition rate); type: in vivo, C57 mice
Source text: Tumor volume measurement: […] Relative tumor volume (RTV)=TVt/TV0, where TV0 is the tumor volume at the time of administration, and TVt is the tumor volume at each measurement. Relative tumor growth rate T/C (%)=TRTV/CRTV×100%, where TRTV is the RTV for the treatment group and CRTV is the RTV for the control group. Tumor growth inhibition rate (%)=(model control group tumor weight−treatment group tumor weight)/model control group tumor weight×100%.

[5] = tested on: LLC tumors; assay: Histopathology (H&E) of tumor, spleen, stomach and kidney in LLC-bearing mice; type: in vivo, C57 mice; details: cisplatin 4, Kanglaite 1404, GLP-4 low-dose 130 mg/kg
Source text: Histopathology examination: After the last dose, tissues from tumors, spleens, stomachs, and kidneys were collected for H&E staining to observe histopathological changes.

[6] = tested on: 4T1 breast cancer cells; assay: Antitumor effect in 4T1 breast tumor-bearing mice (tumor volume, relative tumor growth inhibition rate, tumor index, tumor growth inhibition rate); type: in vivo, BALB/c mice
Protocol: as §2

[7] = 8 per group, cisplatin 4, Kanglaite 1404, GLP-4 low-dose 130 mg/kg
[8] = D1, cisplatin 4, Kanglaite 1404, GLP-4 low-dose 130 mg/kg
[9] = D4, cisplatin 4, Kanglaite 1404, GLP-4 low-dose 130 mg/kg
[10] = D7, cisplatin 4, Kanglaite 1404, GLP-4 low-dose 130 mg/kg
[11] = D10, cisplatin 4, Kanglaite 1404, GLP-4 low-dose 130 mg/kg
[12] = D13, cisplatin 4, Kanglaite 1404, GLP-4 low-dose 130 mg/kg
[13] = D16, cisplatin 4, Kanglaite 1404, GLP-4 low-dose 130 mg/kg
[14] = D19, cisplatin 4, Kanglaite 1404, GLP-4 low-dose 130 mg/kg
[15] = D22, cisplatin 4, Kanglaite 1404, GLP-4 low-dose 130 mg/kg
[16] = D25, cisplatin 4, Kanglaite 1404, GLP-4 low-dose 130 mg/kg

## N.N.[Cl][Pt][Cl] [Cisplatin, cisplatin]
[1]; LLC-bearing mice, blood after last dose, cisplatin 4, Kanglaite 1404, GLP-4 low-dose 130 mg/kg
  ALT: 58.25 U/L
[1]; mouse, in vivo, 130 mg/kg
  AST: 393.25 U/L
  BUN: 7.91 mmol/L
  CRE: 20.45 µmol/L
  RBC: 6.01 ± 10^12/L
  WBC: 11.09 ± 10^9/L
[2]; [7]
  Number of deaths: 0
  Number of surviving animals: 8
[2]; [8]
  Weight: 14.1 ± 0.7 g
[2]; [9]
  Weight: 14.5 ± 1.1 g
[2]; cisplatin 4, Kanglaite 1404, GLP-4 low-dose 130 mg/kg
  Mortality rate: 0%
[3]; D3, cisplatin 3, GLP-4 low-dose 50 mg/kg
  Relative tumor growth inhibition rate (compared to model control group): 32.9%
[3]; D6, cisplatin 3, GLP-4 low-dose 50 mg/kg
  Relative tumor growth inhibition rate (compared to model control group): 39.7%
[3]; D9, cisplatin 3, GLP-4 low-dose 50 mg/kg, 50 mg/kg
  Relative tumor growth inhibition rate (compared to model control group): 66.5^+ %
[3]; D9, cisplatin 3, GLP-4 low-dose 50 mg/kg, listed as cisplatin, 50 mg/kg
  Relative tumor growth inhibition rate (compared to model control group): 66.5%
[3]; D12, cisplatin 3, GLP-4 low-dose 50 mg/kg, 50 mg/kg
  Relative tumor growth inhibition rate (compared to model control group): 70.6^+ %
[3]; D12, cisplatin 3, GLP-4 low-dose 50 mg/kg, listed as cisplatin, 50 mg/kg
  Relative tumor growth inhibition rate (compared to model control group): 70.6%
[3]; D15, cisplatin 3, GLP-4 low-dose 50 mg/kg, 50 mg/kg
  Relative tumor growth inhibition rate (compared to model control group): 69.1^+ %
[3]; D15, cisplatin 3, GLP-4 low-dose 50 mg/kg, listed as cisplatin, 50 mg/kg
  Relative tumor growth inhibition rate (compared to model control group): 69.1%
[3]; D18, cisplatin 3, GLP-4 low-dose 50 mg/kg, 50 mg/kg
  Relative tumor growth inhibition rate (compared to model control group): 81.3^+ %
[3]; D18, cisplatin 3, GLP-4 low-dose 50 mg/kg, listed as cisplatin, 50 mg/kg
  Relative tumor growth inhibition rate (compared to model control group): 81.3%
[3]; D21, cisplatin 3, GLP-4 low-dose 50 mg/kg, 50 mg/kg
  Relative tumor growth inhibition rate (compared to model control group): 83.9^+ %
[3]; D21, cisplatin 3, GLP-4 low-dose 50 mg/kg, listed as cisplatin, 50 mg/kg
  Relative tumor growth inhibition rate (compared to model control group): 83.9%
[3]; D24, cisplatin 3, GLP-4 low-dose 50 mg/kg, 50 mg/kg
  Relative tumor growth inhibition rate (compared to model control group): 85.3^+ %
[3]; D24, cisplatin 3, GLP-4 low-dose 50 mg/kg, listed as cisplatin, 50 mg/kg
  Relative tumor growth inhibition rate (compared to model control group): 85.3%
[3]; D27, cisplatin 3, GLP-4 low-dose 50 mg/kg, 50 mg/kg
  Relative tumor growth inhibition rate (compared to model control group): 84.3^+ %
[3]; D27, cisplatin 3, GLP-4 low-dose 50 mg/kg, listed as cisplatin, 50 mg/kg
  Relative tumor growth inhibition rate (compared to model control group): 84.3%
[3]; cisplatin group
  Tumor growth inhibition rate (%) vs. the model control group: 88.7%
  Tumor index: 2.8 ± 2.1^+ %
[3]; tumor weight, cisplatin 3, GLP-4 low-dose 50 mg/kg
  Tumor growth inhibition rate compared to the model control group: 88.7%
[4]; [8]
  Tumor volume: 94.99 ± 11.16
[4]; [9]
  Relative tumor growth rate (T/C): 81.4%
  Relative tumor volume: 1.84
  Tumor volume: 150.58 ± 34.35
[4]; [10]
  Relative tumor growth rate (T/C): 45.5%
  Relative tumor volume: 0.10
[4]; [11]
  Relative tumor growth rate (T/C): 27.3%
  Relative tumor volume: 0.09
[4]; [12]
  Relative tumor growth rate (T/C): 70.2%
  Relative tumor volume: 0.40
  Tumor volume: 27.36 ± 24.4
[4]; [13]
  Relative tumor growth rate (T/C): 28.2%
  Relative tumor volume: 0.51
[4]; [14]
  Relative tumor growth rate (T/C): 36.9%
  Relative tumor volume: 0.97
[4]; [15]
  Relative tumor growth rate (T/C): 30.9%
  Relative tumor volume: 10.62
[4]; [16]
  Relative tumor growth rate (T/C): 23.6%
  Relative tumor volume: 12.10
[4]; after last dose, cisplatin 4, Kanglaite 1404, GLP-4 low-dose 130 mg/kg
  Tumor coefficient: 7.528 ± 2.567 ^ %
[4]; tumor weight vs model control, cisplatin 4, Kanglaite 1404, GLP-4 low-dose 130 mg/kg
  Tumor growth inhibition rate: 61.6%
[5]
  Tumor histopathology: large areas of necrosis and hemorrhage were visible at the tumor center, with abundant tumor cells
[6]; D0, cisplatin 4 mg/kg
  Tumor volume: 225.3 ± 65.4 mm^3
[6]; D3, cisplatin 4 mg/kg
  Relative tumor growth inhibition rate (compared to model control group): 17.2%
[6]; D6, cisplatin 4 mg/kg
  Relative tumor growth inhibition rate (compared to model control group): 43.5* %
[6]; D6 to D25, cisplatin 4, GLP-4 low-dose 130 mg/kg
  Relative tumor growth inhibition rate compared to the model control group: over 40%
[6]; D9, cisplatin 4 mg/kg
  Relative tumor growth inhibition rate (compared to model control group): 49.1* %
[6]; D12, cisplatin 4 mg/kg
  Relative tumor growth inhibition rate (compared to model control group): 55.7* %
[6]; D15, cisplatin 4 mg/kg
  Relative tumor growth inhibition rate (compared to model control group): 56.9* %
[6]; D19, cisplatin 4 mg/kg
  Relative tumor growth inhibition rate (compared to model control group): 48.8* %
[6]; D22, cisplatin 4 mg/kg
  Relative tumor growth inhibition rate (compared to model control group): 44.1* %
[6]; D25, cisplatin 4 mg/kg
  Relative tumor growth inhibition rate (compared to model control group): 42.1* %
  Tumor volume: 2026.4 ± 707^ mm^3
[6]; cisplatin 4 mg/kg
  Tumor growth inhibition rate (%) vs. the model control group: 29.6%
  Tumor index: 11.5 ± 3.3%
[6]; cisplatin 4, GLP-4 low-dose 130 mg/kg
  Peak relative tumor growth inhibition rate compared to the model control group: 56.9%
[6]; tumor weight, cisplatin 4, GLP-4 low-dose 130 mg/kg
  Tumor growth inhibition rate compared to the model control group: 29.6%
